Here are results for two molecules from BindingDB's records for doi:10.1016/j.bmcl.2007.04.096 (University of Michigan, 2007).

The assay addresses T1, Signal transducer and activator of transcription 3 [127-722] (Mus musculus, UniProt P42227).
T1 construct: 127-722
Description: Fluorescence-Polarization-Based Binding Assay. Particulars: pH 7.5; 22 °C. An excerpt: Fluorescence polarization (FP) binding assay is utilizing the intrinsic property of the fluorescent probe, which will have low polarization value when free in solution. On binding to a target, the polarization of the probe will increase.

For orientation: Ki means a measure of affinity in units of concentration, obtained from inhibition or displacement. Lower therefore signals higher affinity.

Each structure is given as a SMILES string. Where a SMILES comes first, the peptide text is derived from it. Bridges are numbered along the chain shown (N, C = ends). Triazole bridges read from a SMILES are 1,4-linked. [ ]: non-standard residue; d: D form. ξ: configuration not given here. pY = N[C@@H](Cc1ccc(OP(=O)(O)O)cc1)C(=O)O; Lys(N3) = [N-]=[N+]=NCCCC[C@H](N)C(=O)O; Thr(3ξ) = CC(O)[C@H](N)C(=O)O; Pra = C#CC[C@H](N)C(=O)O

T1 sequence (P42227 127-722): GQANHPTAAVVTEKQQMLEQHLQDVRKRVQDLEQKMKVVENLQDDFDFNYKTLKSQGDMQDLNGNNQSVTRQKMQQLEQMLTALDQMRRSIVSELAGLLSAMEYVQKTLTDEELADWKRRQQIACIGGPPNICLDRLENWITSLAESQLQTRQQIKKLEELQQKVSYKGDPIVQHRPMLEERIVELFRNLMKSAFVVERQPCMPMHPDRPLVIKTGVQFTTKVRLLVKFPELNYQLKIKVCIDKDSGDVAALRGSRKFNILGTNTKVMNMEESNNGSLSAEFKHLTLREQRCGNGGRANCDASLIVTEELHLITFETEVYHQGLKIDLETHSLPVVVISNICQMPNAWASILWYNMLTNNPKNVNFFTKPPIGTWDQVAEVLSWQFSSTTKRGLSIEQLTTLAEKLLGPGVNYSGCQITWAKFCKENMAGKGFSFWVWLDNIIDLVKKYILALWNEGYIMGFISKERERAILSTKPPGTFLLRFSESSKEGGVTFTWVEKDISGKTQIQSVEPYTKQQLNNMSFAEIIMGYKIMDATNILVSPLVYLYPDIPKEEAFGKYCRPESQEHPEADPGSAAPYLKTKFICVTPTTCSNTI

For the molecule `CC(=O)N[C@@H](Cc1ccc(OP(=O)(O)O)cc1)C(=O)N[C@@H](CC(C)C)C(=O)N[C@@H](CCCCN)C(=O)N[C@H](C(=O)N[C@@H](CCCCN)C(=O)N[C@@H](Cc1ccccc1)C(N)=O)C(C)O` (stereo partly drawn) [4-[(2S)-2-{[(1S)-1-{[(1S)-5-amino-1-{[(1S,2R)-1-{[(1S)-5-amino-1-{[(1S)-1-carbamoyl-2-phenylethyl]carbamoyl}pentyl]carbamoyl}-2-hydroxypropyl]carbamoyl}pentyl]carbamoyl}-3-methylbutyl]carbamoyl}-2-acetamidoethyl]phenoxyphosphonic acid] (HELM PEPTIDE1{[ac].[O=C([C@H](Cc1ccc(OP(=O)(O)O)cc1)N[*:1])[*:2]].L.K.[CC(O)[C@H](N[*:1])C(=O)[*:2]].K.F.[am]}$$$$V2.0), the Ki worked out at 25.9 µM.

In turn, `CC(=O)N[C@@H](Cc1ccc(OP(=O)(O)O)cc1)C(=O)N[C@@H](CC(C)C)C(=O)N[C@H]1CCCCn2cc(nn2)C[C@@H](C(=O)N[C@@H](Cc2ccccc2)C(N)=O)NC(=O)[C@H](C(C)O)NC1=O` (stereo partly drawn) [4-[(2S)-2-{[(1S)-1-{[(6S,9S,12S)-12-{[(1S)-1-carbamoyl-2-phenylethyl]carbamoyl}-9-[(1R)-1-hydroxyethyl]-7,10-dioxo-1,8,11,15,16-pentaazabicyclo[12.2.1]heptadeca-14(17),15-dien-6-yl]carbamoyl}-3-methylbutyl]carbamoyl}-2-acetamidoethyl]phenoxyphosphonic acid] (Ac-[pY]L[Lys(N3)][Thr(3ξ)][Pra]F-NH2; triazole 3-5) had an inhibitory constant (Ki) of 7.3 µM. This Ki lies about 3.5-fold lower than the previous one.
